pIC50: −log10 of the molar value. Where two headings read alike, the source gives them in different places.
Experiments:
[1] = system: Ba/F3_L858R/T790M/C797S cells; experiment: Ba/F3_L858R/T790M/C797S cell proliferation inhibition assay (CellTiter-Glo); format: cell-based; settings: Mus musculus; for pIC50: BaF3, cell proliferation, 72 h, CellTiter-Glo, read-out: Ba/F3 (L858R/T790M/C797S) IC50; for IC50: BaF3, 72 h, read-out: Ba/F3 (L858R/T790M/C797S) IC50(nM)
Description: Ba/F3_L858R/T790M/C797S Cell Proliferation Inhibition Assay
In the assay, the inhibition effect of the compounds on the proliferation of Ba/F3_L858R/T790M/C797S cells was tested by adopting a CellTiter-Glo method, and the concentration IC50 of the compound for inhibiting half maximal growth of cells was obtained.
Ba/F3_L858R/T790M/C797S cells were constructed by Pharmaron Beijing Co., Ltd.
1640 medium, fetal bovine serum (FBS), Penicillin-Streptomyces, and GlutaMAX-I Supplement, purchased from GIBCO.
(§1) Brigatinib, purchased from Selleck.
(§2) CellTiter-Glo reagent, purchased from Promega.
1) Ba/F3_L858R/T790M/C797S cells were seeded in a 384-well plate at a density of 700 cells/well with 30 μL/well.
(§3) 2) Day 0: […] of gradiently-diluted compounds to be tested with a final concentration of DMSO of 0.1% was added to plate using Echo, and the plate was incubated in a cell incubator for 72 h (37° C., 5% CO2). […] of DMSO was added into each well in blank control group.
(§4) 3) Day 3: 30 μL Cell Titer-Glo reagent was added to each well, and the plate was in the dark under room temperature for 30 min.
(§5) 4) The chemiluminescent signal was detected by an Envision plate reader (PerkinElmer).
(§6) 5) Data analysis was performed using GraphPad Prism software to give the IC50 for compounds.

EGFR WT (wild type EGFR) = EGFR WT (wild type EGFR) (Homo sapiens (Human), UniProt P00533); experiment: In vitro enzymatic TR-FRET (HTRF KinEASE-TK) kinase assay, EGFR WT; format: biochemical; settings: kinase activity, TR-FRET; read-out: EGFR (WT) IC50
Description: (I) In Vitro Enzymatic Experiment for EGFR WT and EGFR L858R/T790M/C797S
In the assay, the inhibition effect of the compound on the kinase activity of EGFR WT (wild type EGFR) and EGFR L858R/T790M/C797S was tested by adopting a time-resolved fluorescence resonance energy transfer (TR-FRET) method, and half maximal inhibitory concentration IC50 of the compound on the kinase activity of EGFR was obtained.
EGFR recombinase and EGFR L858R/T790M/C797S recombinase, purchased from Signalchem.
HTRF KinEASE-TK kit, purchased from Cisbio.
DTT, MnCl2, and MgCl2, purchased from Sigma.
ATP, purchased from Promega.
as §1
1) 1× working solution was prepared: 5 mM MgCl2; 1 mM DTT; 1 mM MnCl2 and 1× kinase buffer (in kit).
2) […] of gradiently-diluted compound was transferred to a 384-well plate using Echo 550 (Labcyte).
3) 5 μL of 2× EGFR WT or EGFR L858R/T790M/C797S recombinase solution was added to the 384-well plate, and the plate was incubated at room temperature for 10 min.
4) 5 μL of 2× TK-substrate-biotin substrate solution (containing ATP) was added to the 384-well plate, and the plate was incubated at room temperature for 40 min.
5) 5 μL of assay solution containing Sa-XL 665 HTRF and 5 μL of TK-antibody-Cryptatewas were added to the plate, and the plate was incubated at room temperature for 1 h.
6) The fluorescence signal values at 615 nm and 665 nm were measured for each well using an Envision microplate reader (PerkinElmer).
7) The ratio of fluorescence signal values at 665 nm and 615 nm was calculated for each well.
8) Data analysis was performed using GraphPad Prism software to give the IC50 for compounds.

[2] = system: Ba/F3_Del19/T790M/C797S cells; experiment: Ba/F3_Del19/T790M/C797S cell proliferation inhibition assay (CellTiter-Glo); format: cell-based; settings: Mus musculus; for pIC50: BaF3, cell proliferation, 72 h, CellTiter-Glo, read-out: Ba/F3 (Del19/T790M/C797S) IC50; for IC50: BaF3, 72 h, read-out: Ba/F3 (Del19/T790M/C797S) IC50(nM)
Description: Ba/F3_Del19/T790M/C797S Cell Proliferation Inhibition Assay
In the assay, the inhibition effect of the compounds on the proliferation of Ba/F3_Del19/T790M/C797S cells was tested by adopting a CellTiter-Glo method, and the concentration IC50 of the compound for inhibiting half maximal growth of cells was obtained.
Ba/F3_Del19/T790M/C797S, purchased from Kyinno Biotechnology Co., Ltd. 1640 medium, fetal bovine serum (FBS), Penicillin-Streptomyces, and GlutaMAX-I Supplement, purchased from GIBCO.
as §1, §2
1) Ba/F3_Del19/T790M/C797S cells were seeded in a 384-well plate at a density of 700 cells/well with 30 μL/well.
as §3, §4, §5
Data analysis was performed using GraphPad Prism 6 software to give the IC50 for compounds.

A431 cells (EGFR WT) = experiment: A431 cell proliferation inhibition assay (CellTiter-Glo); format: cell-based; settings: Homo sapiens; for pIC50: A-431, cell proliferation, 72 h, CellTiter-Glo, read-out: A431 EGFR WT IC50; for IC50: A-431, 72 h, read-out: A431 EGFR WT IC50(nM)
Description: A431 Cell Proliferation Inhibition Assay
In the assay, the inhibition effect of the compounds on the proliferation of A431 cells was tested by adopting a CellTiter-Glo method, and the concentration IC50 of the compound for inhibiting half maximal growth of cells was obtained.
A431 cells, purchased from ATCC.
DMEM medium, fetal bovine serum (FBS), and Penicillin-Streptomycin, purchased from GIBCO.
as §1, §2
1) A431 cells were seeded in a 384-well plate at a density of 800 cells/well with 30 μL/well, and the plate was cultured in a cell incubator for 24 h (37° C., 5% CO2).
as §3, §4, §5, §6

Sequence of EGFR WT (wild type EGFR) (P00533 25-1210): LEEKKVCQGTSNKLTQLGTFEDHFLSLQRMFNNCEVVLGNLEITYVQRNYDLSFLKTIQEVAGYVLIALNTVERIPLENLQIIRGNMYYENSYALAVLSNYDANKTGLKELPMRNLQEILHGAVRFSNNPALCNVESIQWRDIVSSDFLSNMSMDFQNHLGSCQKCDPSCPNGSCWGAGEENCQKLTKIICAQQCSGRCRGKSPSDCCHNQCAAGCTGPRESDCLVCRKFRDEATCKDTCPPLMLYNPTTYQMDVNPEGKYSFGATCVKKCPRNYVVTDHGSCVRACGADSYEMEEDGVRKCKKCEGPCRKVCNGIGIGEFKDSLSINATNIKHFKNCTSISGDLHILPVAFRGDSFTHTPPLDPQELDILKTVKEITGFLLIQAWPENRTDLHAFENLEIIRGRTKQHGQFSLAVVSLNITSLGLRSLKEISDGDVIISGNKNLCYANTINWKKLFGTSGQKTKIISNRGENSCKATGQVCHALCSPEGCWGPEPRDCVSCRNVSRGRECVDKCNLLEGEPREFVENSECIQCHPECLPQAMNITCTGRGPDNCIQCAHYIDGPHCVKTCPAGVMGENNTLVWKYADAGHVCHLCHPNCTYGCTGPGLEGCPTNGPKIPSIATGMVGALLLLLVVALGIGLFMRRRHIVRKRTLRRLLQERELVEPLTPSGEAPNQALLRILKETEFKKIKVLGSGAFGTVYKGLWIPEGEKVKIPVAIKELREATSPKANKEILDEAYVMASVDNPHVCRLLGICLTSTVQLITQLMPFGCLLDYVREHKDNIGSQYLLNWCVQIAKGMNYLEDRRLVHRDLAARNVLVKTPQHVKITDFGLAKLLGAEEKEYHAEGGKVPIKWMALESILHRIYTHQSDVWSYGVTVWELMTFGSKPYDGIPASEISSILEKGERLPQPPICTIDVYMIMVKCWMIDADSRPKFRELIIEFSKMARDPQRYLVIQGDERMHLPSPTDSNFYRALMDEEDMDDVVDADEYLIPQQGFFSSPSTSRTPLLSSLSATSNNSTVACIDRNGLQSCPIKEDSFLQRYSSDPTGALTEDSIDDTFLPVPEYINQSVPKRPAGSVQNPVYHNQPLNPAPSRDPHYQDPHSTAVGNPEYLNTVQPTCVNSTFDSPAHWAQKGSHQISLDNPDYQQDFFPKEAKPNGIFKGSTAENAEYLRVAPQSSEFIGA

Row | SMILES | pIC50 [1] | pIC50 (EGFR WT (wild type EGFR)) | pIC50 [2] | pIC50 (A431 cells (EGFR WT)) | IC50 [1] [nM] | IC50 [2] [nM] | IC50 (A431 cells (EGFR WT)) [nM]
1 | COc1cc2c(cc1Nc1ncc(Br)c(Nc3ccccc3N(C)S(=O)(=O)C3CC3)n1)-c1cnn(C)c1CCN2C [Compound 3] | > 8.00 | 8.00 to 9.00 | > 8.00 | 6.00 to 7.00 |  |  | 
2 | COc1cc2c(cc1Nc1ncc(Br)c(Nc3ccccc3N(C)S(C)(=O)=O)n1)-c1cnn(C)c1CCN2C [Compound 4] | > 8.00 | 8.00 to 9.00 | > 8.00 | 6.00 to 7.00 |  |  | 
3 | COc1cc2c(cc1Nc1ncc(Br)c(Nc3ccc4nccnc4c3P(C)(C)=O)n1)-c1cnn(C)c1CCN2C(C)C [Compound 6] | > 8.00 | 8.00 to 9.00 | > 8.00 | 6.00 to 7.00 |  |  | 
4 | COc1cc2c(cc1Nc1ncc(C)c(Nc3ccccc3P(C)(C)=O)n1)-c1cnn(C)c1CCN2C [Compound 7] | > 8.00 | 8.00 to 9.00 | > 8.00 | 6.00 to 7.00 |  |  | 
5 | COc1cc2c(cc1Nc1ncc(Br)c(Nc3ccc4nccnc4c3P(C)(C)=O)n1)-c1cn(C)nc1CCN2C [Compound 8] | > 8.00 | 8.00 to 9.00 | > 8.00 | 7.00 to 7.30 |  |  | 
6 | COc1cc2c(cc1Nc1ncc(Br)c(Nc3ccc4nccnc4c3P(C)(C)=O)n1)-c1cnn(C)c1CN(C)C2=O [Compound 9] | 7.30 to 8.00 | 7.30 to 8.00 | 7.30 to 8.00 | 6.00 to 7.00 |  |  | 
7 | COc1cc2c(cc1Nc1ncc(Br)c(Nc3ccc4nccnc4c3P(C)(C)=O)n1)-c1cnn(C)c1CN(C)C2 [Compound 11] | > 8.00 | 8.00 to 9.00 | > 8.00 | 6.00 to 7.00 |  |  | 
8 | COc1cc2c(cc1Nc1ncc(Br)c(Nc3ccc4nccnc4c3P(C)(C)=O)n1)-c1cnn(C)c1CCN2CC1CC1 [Compound 12] | > 8.00 | 8.00 to 9.00 | > 8.00 | 6.00 to 7.00 |  |  | 
9 | COc1cc2c(cc1Nc1ncc(Cl)c(Nc3ccccc3P(C)(C)=O)n1)-c1cnn(C)c1CCN2C [Compound 14] | > 8.00 | 8.00 to 9.00 | > 8.00 | 6.00 to 7.00 |  |  | 
10 | COc1cc2c(cc1Nc1ncc(Br)c(Nc3ccc4nccnc4c3P(C)(C)=O)n1)-c1cnn(C)c1CCN2C(C)=O [Compound 15] | 7.30 to 8.00 | 7.30 to 8.00 | > 8.00 | 6.00 to 7.00 |  |  | 
11 | COc1cc2c(cc1Nc1ncc(Br)c(Nc3ccc4nccnc4c3P(C)(C)=O)n1)-c1cnn(C)c1CCN2 [Compound 16] |  | 8.00 to 9.00 |  |  | < 10 | < 10 | 50 to 100
12 | CCN1CCc2c(cnn2C)-c2cc(Nc3ncc(C)c(Nc4ccccc4P(C)(C)=O)n3)c(OC)cc21 [Compound 19] | 7.30 to 8.00 | 8.00 to 9.00 | > 8.00 | 6.00 to 7.00 |  |  | 
13 | CCN1CCc2c(cnn2C)-c2cc(Nc3ncc(Br)c(Nc4ccccc4P(C)(C)=O)n3)c(OC)cc21 [Compound 20] | > 8.00 | 8.00 to 9.00 | > 8.00 | 6.00 to 7.00 |  |  | 
14 | COc1cc2c(cc1Nc1ncc(Br)c(Nc3ccc4nccnc4c3N(C)S(=O)(=O)C3CC3)n1)-c1cnn(C)c1CCN2C [Compound 21] | > 8.00 | 8.00 to 9.00 | > 8.00 | 6.00 to 7.00 |  |  | 
15 | COc1cc2c(cc1Nc1ncc(Br)c(Nc3ccc4nccnc4c3P(C)(C)=O)n1)-c1cnn(C)c1CCC2O (centres unmarked) [Compound 24] | > 8.00 | 8.00 to 9.00 | > 8.00 | 6.00 to 7.00 |  |  | 
16 | CCc1cnc(Nc2cc3c(cc2OC)N(C)CCc2c-3cnn2C)nc1Nc1ccccc1P(C)(C)=O [Compound 25] | 7.30 to 8.00 | 8.00 to 9.00 | > 8.00 | 6.00 to 7.00 |  |  | 
17 | COc1cc2c(cc1Nc1ncc(C(F)(F)F)c(Nc3ccccc3P(C)(C)=O)n1)-c1cnn(C)c1CCN2C [Compound 26] | > 8.00 | 7.30 to 8.00 | > 8.00 | 6.00 to 7.00 |  |  | 
18 | COc1cc2c(cc1Nc1ncc(Br)c(Nc3ccccc3P(C)(C)=O)n1)-c1cnn(C)c1CCN2 [Compound 28] |  | 8.00 to 9.00 |  |  | < 10 | < 10 | 100 to 1000
19 | COc1cc2c(cc1Nc1ncc(Br)c(Nc3ccccc3P(C)(C)=O)n1)-c1ccnn1CCN2C [Compound 29] | 7.30 to 8.00 | 7.30 to 8.00 | 7.30 to 8.00 | 6.00 to 7.00 |  |  | 
20 | COc1cc2c(cc1Nc1ncc(Br)c(Nc3ccc4nccnc4c3P(C)(C)=O)n1)-c1cnn(C)c1CC(O)C2 (centres unmarked) [Compound 31] | 7.30 to 8.00 | 8.00 to 9.00 | > 8.00 | 6.00 to 7.00 |  |  | 
21 | COc1cc2c(cc1Nc1ncc(Br)c(Nc3ccc4nccnc4c3P(C)(C)=O)n1)-c1cnn(C)c1CCO2 [Compound 33] | > 8.00 | 8.00 to 9.00 | > 8.00 | 7.00 to 7.30 |  |  | 
22 | COc1cc2c(cc1Nc1nc(Nc3ccccc3P(C)(C)=O)c3cc[nH]c3n1)-c1cnn(C)c1CCN2C [Compound 36] | > 8.00 | 8.00 to 9.00 | > 8.00 | 6.00 to 7.00 |  |  | 
23 | COc1cc2c(cc1Nc1ncc(Br)c(Nc3ccccc3P(C)(C)=O)n1)-c1cn[nH]c1CCN2C [Compound 37] | 7.30 to 8.00 | 8.00 to 9.00 | > 8.00 | 6.00 to 7.00 |  |  | 

From patent US20240034743A9, “TRICYCLIC COMPOUNDS AS EGFR INHIBITORS” (QILU PHARMACEUTICAL CO., LTD., priority 2020, published 2024)
